The source of these data is ChEMBL document CHEMBL3758145, “Synthesis of 3-acyloxyxanthone derivatives as α-glucosidase inhibitors: A further insight into the 3-substituents' effect” (Bioorg Med Chem, 2016).

Usually IC50 stands for the concentration needed to halve the response being measured. Low readings indicate greater potency in that assay, high ones weaker potency in that assay. Broadly, the Ki is the dissociation constant of the complex between target and ligand, obtained from inhibition or displacement.

Common to all, as to parameters: species or system Saccharomyces cerevisiae
A short description of assay [1]: Inhibition of yeast alpha-glucosidase using PNP glycoside as substrate preincubated for 30 mins followed by substrate addition measured for 60 secs by spectrophotometric analysis.
The nature of assay [2]: Non-competitive inhibition of yeast alpha-glucosidase using PNP glycoside as substrate assessed as enzyme-inhibitor complex preincubated for 30 mins followed by substrate addition measured for 60 secs by Lineweaver-Burk plot analysis.
The nature of assay [3]: Non-competitive inhibition of yeast alpha-glucosidase using PNP glycoside as substrate assessed as enzyme-substrate-inhibitor complex preincubated for 30 mins followed by substrate addition measured for 60 secs by Lineweaver-Burk plot analysis.

Consider `O=C(Oc1cc(O)c2c(=O)c3ccccc3oc2c1)c1ccccc1F`, for which 31.6 µM corresponded to half-maximal inhibition in assay [1] (IC50). This counts as double-digit micromolar. Still for that read-out and setting: the same measure for `O=C(Oc1cc(O)c2c(=O)c3ccccc3oc2c1)c1cccc2ccccc12`: 21.6 µM. Still for that read-out and setting: the value for `OC[C@H]1NC[C@H](O)[C@@H](O)[C@@H]1O` [DUVOGLUSTAT] was 40 µM; that for `COc1cc(C(=O)Oc2cc(O)c3c(=O)c4ccccc4oc3c2)cc(OC)c1OC` was 58.2 µM. `O=C(Oc1cc(O)c2c(=O)c3ccccc3oc2c1)c1ccc(O)cc1`: it took 13.3 µM to reach half-maximal inhibition in assay [1] (IC50). The Ki was 17.8 µM in assay [2] and 15.5 µM in assay [3]. As to `O=C(Oc1cc(O)c2c(=O)c3ccccc3oc2c1)c1cccnc1`, the IC50 in assay [1] is 42.6 µM.

In assay [1], `COc1ccc(C(=O)Oc2cc(O)c3c(=O)c4ccccc4oc3c2)cc1` gave an IC50 of 23.2 µM. Compared with the last compound, the IC50 is about 1.8-fold lower. On the same count and under the same terms, the value for `O=C(Oc1cc(O)c2c(=O)c3ccccc3oc2c1)c1ccncc1` was 23.7 µM. On the same count and under the same terms, the value for `O=C(Oc1cc(O)c2c(=O)c3ccccc3oc2c1)c1ccccc1` was 36.1 µM. Still for that read-out and setting: the value for `O=C(/C=C/c1ccccc1)Oc1cc(O)c2c(=O)c3ccccc3oc2c1` was 46.7 µM; that for `CNc1ccc(C(=O)Oc2cc(O)c3c(=O)c4ccccc4oc3c2)cc1` was 19.8 µM. The compound `O=C(Oc1cc(O)c2c(=O)c3ccccc3oc2c1)c1ccc2ccccc2c1` displayed an IC50 in assay [1] of 30.6 µM.

In assay [1], `O=C(Oc1cc(O)c2c(=O)c3ccccc3oc2c1)c1ccccc1Cl` had an IC50 of 21.8 µM. This IC50 and that of the compound before are within 1.5-fold of each other. `CC(C)(C)[Si](C)(C)Oc1ccc(C(=O)Oc2cc(O)c3c(=O)c4ccccc4oc3c2)cc1` displayed an IC50 in assay [1] of 10.6 µM. The Ki in assay [2] stood at 13.3 µM; in assay [3] it was 12.1 µM.

As for `O=C(Oc1cc(O)c2c(=O)c3ccccc3oc2c1)c1ccccn1`, the IC50 in assay [1] was found to be 42 µM. Same read-out and setting: the same measure for `Cc1ccc(C(=O)Oc2cc(O)c3c(=O)c4ccccc4oc3c2)cc1`: 106 µM. In assay [1], `O=C(Oc1cc(O)c2c(=O)c3ccccc3oc2c1)c1cccc(Br)c1` showed an IC50 of 11.6 µM. The inhibitory constant (Ki) in assay [2] worked out at 18 µM; in assay [3] it was 17.4 µM.

`O=c1c2ccccc2oc2cc(O)cc(O)c12`: half-maximal inhibition in assay [1] (IC50) was put at 145 µM.
